Results on 54 molecules are retold here after patent publication US20250099448A1, “HETEROCYCLIC COMPOUNDS” (Hoffmann-La Roche Inc., priority 2022, published 2025).

pIC50: −log10 of the molar value.

This test addresses T1, MAGL protein (Homo sapiens, UniProt Q99685).
T1 sequence (Q99685 1-303): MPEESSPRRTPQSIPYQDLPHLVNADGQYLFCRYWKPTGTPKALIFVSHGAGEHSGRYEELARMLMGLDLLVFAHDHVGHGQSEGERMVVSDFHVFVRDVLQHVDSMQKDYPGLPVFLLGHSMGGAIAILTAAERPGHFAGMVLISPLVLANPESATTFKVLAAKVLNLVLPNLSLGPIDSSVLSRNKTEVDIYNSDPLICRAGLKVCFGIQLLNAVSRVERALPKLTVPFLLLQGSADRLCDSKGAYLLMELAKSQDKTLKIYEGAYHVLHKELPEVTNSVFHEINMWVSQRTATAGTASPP
The experiment in a line: 2-AG assay: MAGL inhibitory activity by hydrolysis of 2-arachidonoylglycerol to arachidonic acid, followed by mass spectrometry. Format: biochemical. To be noted: 8 μM 2-arachidonoylglycerol, 15 min preincubation, 30 min reaction at RT, RapidFire MS readout. The gist of the method: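 Activity was measured by RapidFire SPE–triple-quad MS as the ratio of arachidonic acid to d8-arachidonic acid after 2-AG hydrolysis (8 μM substrate, 30 min, RT, acetonitrile quench). Compounds, tested from 12.5 μM down to […], were first preincubated 15 min with MAGL in TRIS/EDTA/Tween-20 buffer containing 2.5% DMSO.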
In turn, `N=S(=O)(c1ccc(CC2CC3(C2)CN(C(=O)N2CC4(CC(c5nc(C6(O)CC6)n[nH]5)C4)C2)C3)cc1)C(F)(F)F` (stereo not drawn) [compound 558] had a pIC50 of 9.22.
With `O=C(N1CC2(CC(Cc3cncc(S(=O)(=O)C(F)(F)F)c3)C2)C1)N1CC2(CC(c3nc(C4(O)CC4)n[nH]3)C2)C1` [compound 560] the figure was 8.90.
As for `O=C(N1CC2(CC(c3nc(C4CC(F)(F)C4)n[nH]3)C2)C1)N1CC2(CN(Cc3cc(C(F)(F)F)ns3)C2)C1` [compound 561], the figure is 5.84.
As for `CS(=O)(=O)c1cc(Cl)ccc1C12CC(C3CN(C(=O)N4CC5(CC(c6nnc(C7CC7)[nH]6)C5)C4)C3)(C1)C2` [compound 562], the figure is 9.70.
Molecule `O=C(N1CC(c2ccc(C3(C(F)(F)F)CC3)cc2)C1)N1CC2(CC(c3nc(C4CC(F)(F)C4)n[nH]3)C2)C1` [compound 563] had a pIC50 of 7.90.
With `N=S(=O)(c1ccc(C2CN(C(=O)N3CC4(CC(c5nc(C6(F)CC6)n[nH]5)C4)C3)C2)cc1)C(F)(F)F` (stereo not drawn) [compound 564] the figure was 9.07; with `O=C(N1CC2(CC(Cc3cnc(C(F)(F)F)nc3)C2)C1)N1CC2(CC(c3nc(C4(F)CC4)n[nH]3)C2)C1` [compound 565], 8.98; with `O=C(N1CC2(CC(Cc3ccc(OC(F)(F)F)nc3)C2)C1)N1CC2(CC(c3nc(C4CC(F)(F)C4)n[nH]3)C2)C1` [compound 566], 7.83.
For `O=C(N1CC2(CC(c3nc(C4CC4)n[nH]3)C2)C1)N1CC2(CN(Cc3cnn(CC(F)(F)F)c3)C2)C1` [compound 568], the pIC50 was 6.39.
With `N#Cc1ccc(CC2CC3(C2)CN(C(=O)N2CC4(CC(c5nc(C6(F)CC6)n[nH]5)C4)C2)C3)cc1C(F)(F)F` [compound 569] the figure was 10.05; with `O=C(N1CC(C23CC(Cc4ccc(C(F)(F)F)nc4)(C2)C3)C1)N1CC2(CC(c3nc(C4(O)CC4)n[nH]3)C2)C1` [compound 570], 7.45.
Regarding `O=C(N1CC2(CC(Cc3cn(CC(F)(F)F)nc3C(F)(F)F)C2)C1)N1CC2(CC(c3nc(C4CC4)n[nH]3)C2)C1` [compound 571], the pIC50 was 9.26.
Molecule `O=C(N1CC2(CC(c3nc(C4CC4)n[nH]3)C2)C1)N1CC2(CN(Cc3cccn(CC(F)(F)F)c3=O)C2)C1` [compound 572] showed a negative logarithm of the IC50 (pIC50) of 6.73.
With `O=C(N1CC(C23CC(c4nnc(C5(C(F)(F)F)CC5)o4)(C2)C3)C1)N1CC2(CC(c3nc(C4(O)CC4)n[nH]3)C2)C1` [compound 573] the figure was 6.04; with `O=C(N1CC2(CCC(Cc3ccc(C(F)(F)F)cn3)CC2)C1)N1CC2(CC(c3nc(C4CC(F)(F)C4)n[nH]3)C2)C1` [compound 574], 7.18; with `N=S(=O)(c1cccc(OC(F)(F)F)c1)C1CC2(C1)CN(C(=O)N1CC3(CC(c4nnc(C5CC5)[nH]4)C3)C1)C2` (stereo not drawn) [compound 575], 8.40.
As for `O=C(N1CC(C23CC(NCC4(C(F)(F)F)CC4)(C2)C3)C1)N1CC2(CC(c3nc(C4(F)CC4)n[nH]3)C2)C1` [compound 578], the figure is 9.29; as for `N#Cc1cc(CC2CC3(C2)CN(C(=O)N2CC4(CC(c5nc(C6CC(F)(F)C6)n[nH]5)C4)C2)C3)cc(C(F)(F)F)c1` [compound 579], 7.62; as for `Cn1ncc(CN2CC3(C2)CN(C(=O)N2CC4(CC(c5nc(C6CC6)n[nH]5)C4)C2)C3)c1S(N)(=O)=O` [compound 580], 6.17.
With `CC(C)(C)Cc1nnc(C23CC(C4CN(C(=O)N5CC6(CC(c7nc(C8CC8)n[nH]7)C6)C5)C4)(C2)C3)s1` [compound 581] the figure was 8.65.
`CS(=O)(=O)c1ccc(CC2CC3(C2)CN(C(=O)N2CC4(CC(c5nc(C6CC(F)(F)C6)n[nH]5)C4)C2)C3)cc1` [compound 582] had a pIC50 of 6.78.
With `CC(C)(C)Cc1nnc(C23CC(C4CN(C(=O)N5CC6(CC(c7nc(C8CC(F)(F)C8)n[nH]7)C6)C5)C4)(C2)C3)s1` [compound 583] the figure was 6.53; with `O=C(N1CC2(CC(c3nc(C4CC4)n[nH]3)C2)C1)N1CC2(CN(Cc3ccc(C(F)(F)F)cc3F)C2)C1` [compound 584], 9.32; with `N#Cc1cc(CC2CC3(C2)CN(C(=O)N2CC4(CC(c5nc(C6(F)CC6)n[nH]5)C4)C2)C3)ccc1C(F)(F)F` [compound 585], 10.22.
`O=C(N1CC2(CC(Cc3ccc(F)cc3F)C2)C1)N1CC2(CC(c3nc(C4CC(F)(F)C4)n[nH]3)C2)C1` [compound 586]: the negative-log IC50 (pIC50) was 8.26.
As for `Cc1cc(C2CC2)n(C23CC(C4CN(C(=O)N5CC6(CC(c7nc(C8CC8)n[nH]7)C6)C5)C4)(C2)C3)n1` [compound 587], the figure is 8.62.
As for `Cc1cc(C2CC2)n(C23CC(C4CN(C(=O)N5CC6(CC(c7nc(C8(O)CC8)n[nH]7)C6)C5)C4)(C2)C3)n1` [compound 588], the figure is 7.39; as for `O=C(N1CC2(CC(Cc3cc(C(F)(F)F)n[nH]3)C2)C1)N1CC2(CC(c3nc(C4(O)CC4)n[nH]3)C2)C1` [compound 589], 9.23.
With `N#Cc1ccc(CC2CC3(C2)CN(C(=O)N2CC4(CC(c5nc(C6CC6)n[nH]5)C4)C2)C3)cc1C(F)(F)F` [compound 590] the figure was 9.47.
Take `CC(C)(C)c1conc1CN1CC2(C1)CN(C(=O)N1CC3(CC(c4nc(C5CC5)n[nH]4)C3)C1)C2` [compound 591]: the pIC50 is 8.44.
As for `Cn1ncc(OC2CC3(C2)CN(C(=O)N2CC4(CC(c5nc(C6CC6)n[nH]5)C4)C2)C3)c1C(F)(F)F` [compound 592], the figure is 8.86; as for `O=C(N1CC(C23CC(Nc4cnc(C(F)(F)F)cn4)(C2)C3)C1)N1CC2(CC(c3nc(C4(O)CC4)n[nH]3)C2)C1` [compound 593], 8.87; as for `O=C(N1CC2(CC(c3nc(C4CC4)n[nH]3)C2)C1)N1CC2(CC[C@H](Cc3cccc(S(=O)(=O)C(F)(F)F)c3)C2)C1` [compound 594], 10.70.
The molecule `Cc1cc(C23CC(C4CN(C(=O)N5CC6(CC(c7nc(C8CC8)n[nH]7)C6)C5)C4)(C2)C3)[nH]n1` [compound 595] had a pIC50 of 8.44.
As for `O=C(N1CC2(CC(c3nc(C4CC(F)(F)C4)n[nH]3)C2)C1)N1CC2(CN(Cc3ncc(C(F)(F)F)s3)C2)C1` [compound 596], the figure is 6.45.
As for `O=C(N1CC2(CC(c3nc(C4CC4)n[nH]3)C2)C1)N1CC2(CN(Cc3ccnn3CC(F)F)C2)C1` [compound 597], the figure is 6.87; as for `O=C(N1CC2(CC(c3nc(C4(F)CC4)n[nH]3)C2)C1)N1CC2(CN(Cc3ncc(C(F)(F)F)s3)C2)C1` [compound 598], 8.72.
With `O=C(N1CC2(CC(c3nc(C4(O)CC4)n[nH]3)C2)C1)N1CC2(CC[C@@H](Cc3ccc(S(=O)(=O)C(F)(F)F)cc3)C2)C1` [compound 599] the figure was 9.08; with `O=C(N1CC2(CC(c3nc(C4CC4)n[nH]3)C2)C1)N1CC2(CN(Cc3ccn(C(F)(F)F)n3)C2)C1` [compound 601], 7.58.
Molecule `Cn1nc(CC2CC3(C2)CN(C(=O)N2CC4(CC(c5nc(C6(F)CC6)n[nH]5)C4)C2)C3)cc1C(F)(F)F` [compound 602] had a pIC50 of 9.96.
With `N=S(=O)(c1ccc(CC2CC3(C2)CN(C(=O)N2CC4(CC(c5nc(C6CC(F)(F)C6)n[nH]5)C4)C2)C3)cc1)C(F)(F)F` (stereo not drawn) [compound 603] the figure was 7.46; with `O=C(N1CC2(CC(Cc3cccc(S(=O)(=O)C(F)(F)F)c3)C2)C1)N1CC2(CC(c3nc(C4CC(F)(F)C4)n[nH]3)C2)C1` [compound 604], 8.16.
As to `N#Cc1ccc(OC2CC3(C2)CN(C(=O)N2CC4(CC(c5nc(C6CC6)n[nH]5)C4)C2)C3)cc1C(F)(F)F` [compound 605], the negative-log IC50 (pIC50) is 9.07.
In turn, `N#Cc1cc(CC2CC3(C2)CN(C(=O)N2CC4(CC(c5nnc(C6(O)CC6)[nH]5)C4)C2)C3)cnc1C(F)(F)F` [compound 606] showed a pIC50 of 8.29.
On to `O=C(N1CC2(CC(Cc3cn[nH]c3C(F)(F)F)C2)C1)N1CC2(CC(c3nc(C4CC4)n[nH]3)C2)C1` [compound 607], for which the negative logarithm of the IC50 (pIC50) is 10.10.
As for `O=C(N1CC2(CC(c3nc(C4CC4)n[nH]3)C2)C1)N1CC2(CN(Cc3cc(C(F)(F)F)on3)C2)C1` [compound 609], the figure is 8.08; as for `O=C(N1CC2(CC(Cc3cc(C(F)F)[nH]n3)C2)C1)N1CC2(CC(c3nc(C4CC4)n[nH]3)C2)C1` [compound 610], 9.40; as for `N#Cc1cc(C(F)(F)F)ncc1C[C@H]1CCC2(C1)CN(C(=O)N1CC3(CC(c4nnc(C5CC5)[nH]4)C3)C1)C2` [compound 611], 9.17.
With `O=C(N1CC2(CC(c3nc(C4CC4)n[nH]3)C2)C1)N1CC2(CC[C@@H](Cc3ccc(S(=O)(=O)C(F)(F)F)cc3)C2)C1` [compound 612] the figure was 9.89.
In the case of `O=C(N1CC2(CC(Cc3ncc(Cl)cc3F)C2)C1)N1CC2(CC(c3nc(C4CC4)n[nH]3)C2)C1` [compound 613], the pIC50 was 9.04.
As for `O=C(N1CC2(CC(c3nc(C4CC4)n[nH]3)C2)C1)N1CC2(CN(Cc3cc(C4CCC4)[nH]n3)C2)C1` [compound 614], the figure is 8.26; as for `O=C(N1CC2(CC(Cc3cc(C(F)F)[nH]n3)C2)C1)N1CC2(CC(c3nc(C4(O)CC4)n[nH]3)C2)C1` [compound 615], 8.78; as for `O=C(N1CC2(CC(Cc3ccc(S(=O)(=O)C(F)(F)F)cn3)C2)C1)N1CC2(CC(c3nc(C4(O)CC4)n[nH]3)C2)C1` [compound 616], 9.00.
With `O=C(N1CC2(CC(Cc3ncc(F)cc3Cl)C2)C1)N1CC2(CC(c3nc(C4CC(F)(F)C4)n[nH]3)C2)C1` [compound 617] the figure was 8.09.

In general, pIC50 refers to −log10 of the IC50, conventionally taken in molar units.
